Measured values taken from patent publication US20260234185A1, “ANTI-AGING COMPOSITION COMPRISING PEPTIDE COMPLEX AS ACTIVE INGREDIENT” (priority 2023, published 2026).
Where no end group is shown, it is not given here.

What was measured:
IκBα = assay: Western blot of IκBα phosphorylation in adipocytes with palmitate-induced inflammation; format: cell-based; conditions: 3T3-L1 adipocytes, inflammation induced by 25 μM palmitate; 0.2, 2, 20 μg/mL; 24 hours; Western blot vs PA control (FIGS. 5a, 5b)
Description: An experiment was performed to determine whether the peptide complex prepared in Preparation Example 1 induces a decrease in the phosphorylation of IκBα and a decrease in the expression level of the inflammatory cytokine TNFα in adipocytes under an inflammatory state induced by palmitate treatment.
When 3T3-L1 preadipocytes reached 80% confluence, they were seeded at 5×10^3 cells/well in a 96-well plate and used for the experiment. Two days after reaching confluence, the medium was replaced with a differentiation-inducing medium to induce the differentiation into adipocytes. Two days after the induction, the cells were cultured for 2 days in a medium containing 10% FBS and 10 μg/mL insulin, and then the medium was replaced with 10% FBS every days 2 until their differentiation into adipocytes. Once the differentiation was complete, the medium was replaced with a serum-free medium and cultured for 4 hours to induce starvation. After treating with 25 μM palmitate for 30 minutes, the peptide complexes were treated at concentrations of 0.2 μg/mL, 2 μg/mL, and 20 μg/mL and incubated for 24 hours. The control group (PA) was treated only with palmitate but not with the peptide complex. After dissolving by adding dissolution buffer thereto, the proteins obtained by centrifugation at 4° C. and 12,000 rpm for 30 minutes were quantified using a BCA kit. […]

SIRT1 = assay: Western blot of SIRT1 expression in myocytes with palmitate-induced insulin metabolic disorder; format: cell-based, mouse; conditions: C2C12 myocytes in insulin metabolic disorder induced by palmitate treatment; 0.2, 2, 20 μg/mL; 24 hours; Western blot (FIGS. 7a, 7b)
Description: An experiment was performed to determine whether the peptide complex increases AMPK phosphorylation and SIRT1 expression levels in myocytes in a state of insulin metabolic disorder induced by palmitate treatment.
C2C12 cells, mouse-derived myoblasts, were cultured in DMEM medium containing 1% P/S and 2% BCS. When the cell confluency reached 70-80%, the cells were seeded in a 6-well culture plate. When the cell confluency in the 6-well culture plate reached 100%, the medium was replaced with differentiation medium (1% P/S, 2% horse serum), and thereafter, the differentiation medium (1% P/S, 2% horse serum) was replaced once every two days. Five days after the first replacement, the peptide complex was treated at concentrations of 0.2 μg/mL, 2 μg/mL, and 20 μg/mL and cultured for 24 hours. The group untreated with the peptide complex was used as the control. After dissolving by adding dissolution buffer thereto, the proteins obtained were centrifuged at 4° C. and 12,000 rpm for 30 minutes, and quantified using a BCA kit. The proteins were subjected to sodium dodecyl sulfate-polyacrylamide gel electrophoresis (SDS-PAGE) and then electrotransferred onto a membrane. The membrane with the proteins attached was blocked by treating it with 5% skim milk, and then the primary antibody was reacted overnight at 4° C. […]

sirtuin 1 (SIRT1) = assay: Western blot of SIRT1 protein expression in adipocytes; format: cell-based; conditions: differentiated 3T3-L1 adipocytes; 0.2, 2, 20 μg/mL; 1 hour; Western blot (FIGS. 1a, 1b)
Description: An experiment was performed to determine whether the peptide complex prepared in Preparation Example 1 using adipocytes increases the phosphorylation of AMP-activated protein kinase (AMPK), which is a longevity-related protein, and increases the expression levels of sirtuin 1 (SIRT1) and fibroblast growth factor 21 (FGF21) proteins in adipocytes.
When 3T3-L1 preadipocytes reached 80% confluence, they were seeded at 5×10^3 cells/well in a 96-well plate and used for the experiment. Two days after reaching confluence, the medium was replaced with a differentiation-inducing medium to induce the differentiation into adipocytes, and two days after the induction, the cells were cultured for 2 days in a medium containing 10% FBS and 10 μg/mL insulin, and then the medium was replaced with 10% FBS every 2 days until their differentiation into adipocytes. Once the differentiation was complete, the medium was replaced with a serum-free medium and cultured for 4 hours to induce starvation. The peptide complexes were treated at concentrations of 0.2 μg/mL, 2 μg/mL, and 20 μg/mL, incubated for 1 hour, dissolved by adding dissolution buffer thereto, and the proteins obtained by centrifugation at 4° C. and 12,000 rpm for 30 minutes were quantified using a BCA kit. […]

“peptide complex: prepared by mixing equal amounts of the peptide of SEQ ID NO: 1 (LKTRN) and the peptide of SEQ ID NO: 2 (KGSATGWMA) (also: mixture of two peptides)” was tested, and the “phosphorylation of IκBα” value (IκBα) was “reduced”, the “expression level of SIRT1 protein” value (SIRT1) was “increased” and the “expression level of SIRT1 protein” value (sirtuin 1 (SIRT1)) was “increased”.
